Data taken from article PMC10545790.
Values after ≈ are worked out from the molar mass of the structure shown. Values joined by “and” are separate entries in the source; they are usually repeats but may differ in a detail not shown here. Identical values can stand only once. “Also recorded” adds a separate entry of the source. Like-named read-outs stand apart in the source and are kept apart here.

Tests used:
[1] = Thermal and chemical stability; assay type: physicochemical; conditions: for chemical stability in acid: aq. 1 M HCl; for chemical stability in acid / chemical stability in base / stability on storage: room temperature; for chemical stability in acid / chemical stability in base: 1 h; for chemical stability in base: aq. 1 M NaOH; for thermal stability: heating at 100 °C for five minutes; for stability on storage: in air, closed vials, one year, 1H NMR
Source text: We also examined the thermal and chemical stability of the synthesized 2-oxabicyclo[2.2.2]octanes. As representative examples, we selected three molecules: isomeric acids 47, 54, and amine 52. All 2-oxabicyclo[2.2.2]octanes were crystalline solids that were stable in air. We stored them in stock at room temperature in closed vials and observed no changes according to ^1H NMR after one year. […] Treatment of the selected 2-oxabicyclo[2.2.2]octanes with aq. 1 M HCl, or aq.

[2] = Determination of pKa values (potentiometric titration); assay type: physicochemical; conditions: methanol-water (1:4) solution of NaCl; titration method; potentiometric acid-base titration at 25 °C in methanol-water (1:4), 150 mM NaCl; read-out: pKa (exp.)
Experimental: Data is obtained by the titration method. Para-methyl benzoic acid (83) is used as a reference. TEXT PRINTED IN THE PICTURE: 83: pKa (exp.): 4.5 ± 0.1 | 84: pKa (exp.): 5.6 ± 0.1 | 47: pKa (exp.): 4.4 ± 0.1 | 54: pKa (exp.): 4.1 ± 0.1 […]
Determination of pKa values
The tendency of a compound to donate proton is measured as its acid ionization constant (dissociation constant), or Ka. A more practical scale of representing acidity is pKa which is the negative logarithm of the Ka (pKa = -log Ka). pKa of a test article is determined by pH-metric method based on potentiometric acid-base titration at 25 °C. The test compounds are dissolved in acidified methanol-water (1:4) solution of NaCl (150 mM, pH 2) and slowly titrated with 0.3 M sodium hydroxide methanol-water (1:4) solution, while recording pH of the solution as a function of NaOH volume used during the titration (construction of the titration curve). Titration of acidified NaCl solution in absence of any compounds is used for blank plotting.5-8 Buffering capacity is calculated in each point of titration curve as the ratio of the NaOH flow (constant) to the pH rise velocity. The pKa value is determined from resulting plot of buffering capacity versus pH as the maximum of buffering capacity. pH-metric method allows to measure pKas in the range of approximately between 2 and 12. […]
meter, pHi®510 (Beckman Coulter, Canada; Cat# A58734). Data analysis was done using GraphPad […]
Sodium hydroxide (Enamine, Ukraine; CAS # 1310-73-2)
Sodium chloride BioXtra, ≥99.5% (AT) (Sigma-Aldrich, USA; Cat # S7653)
Hydrochloric acid (Enamine, Ukraine; CAS # 7647-01-0)
Disposable pipette tips (Eppendorf, German; Matrix and Finntip, Thermo, USA) Polypropylene graduated conical tubes, 50 mL (Kartell, Italy; Cat. # 84002) Polypropylene syringe (10 mL) with tubing (Hemoplast, Ukraine) […]
pH-meter, pHi®510 (Beckman Coulter, Canada; Cat# A58734)
Multichannel Electronic Pipettes 5-50 µL, 10-1000 µL (Thermo, USA)
Magnetic stirrer standard unit (IKA, USA)
Syringe Driver Mdl 100 (KDScientific, USA)

human liver microsomes [3] = assay: Metabolic stability in human liver microsomes; conditions: human liver microsomes
[4] = Metabolic stability in human liver microsomes; conditions: both, human, liver microsomes (pooled)
physchem = conditions: pH 7.4, logD (7.4): experimental distribution coefficient in n-octanol/phosphate-buffered saline
ABL1 kinase = ABL1 kinase (Homo sapiens, UniProt P00519); conditions: for Luminescence, Raw Data (LUM): ADP-Glo
[5] = Kinetic solubility in phosphate-buffered saline, pH 7.4
human liver microsomes [6] = conditions: both, 2 µM, pH 7.4

ABL1 kinase, sequence (P00519 whole entry): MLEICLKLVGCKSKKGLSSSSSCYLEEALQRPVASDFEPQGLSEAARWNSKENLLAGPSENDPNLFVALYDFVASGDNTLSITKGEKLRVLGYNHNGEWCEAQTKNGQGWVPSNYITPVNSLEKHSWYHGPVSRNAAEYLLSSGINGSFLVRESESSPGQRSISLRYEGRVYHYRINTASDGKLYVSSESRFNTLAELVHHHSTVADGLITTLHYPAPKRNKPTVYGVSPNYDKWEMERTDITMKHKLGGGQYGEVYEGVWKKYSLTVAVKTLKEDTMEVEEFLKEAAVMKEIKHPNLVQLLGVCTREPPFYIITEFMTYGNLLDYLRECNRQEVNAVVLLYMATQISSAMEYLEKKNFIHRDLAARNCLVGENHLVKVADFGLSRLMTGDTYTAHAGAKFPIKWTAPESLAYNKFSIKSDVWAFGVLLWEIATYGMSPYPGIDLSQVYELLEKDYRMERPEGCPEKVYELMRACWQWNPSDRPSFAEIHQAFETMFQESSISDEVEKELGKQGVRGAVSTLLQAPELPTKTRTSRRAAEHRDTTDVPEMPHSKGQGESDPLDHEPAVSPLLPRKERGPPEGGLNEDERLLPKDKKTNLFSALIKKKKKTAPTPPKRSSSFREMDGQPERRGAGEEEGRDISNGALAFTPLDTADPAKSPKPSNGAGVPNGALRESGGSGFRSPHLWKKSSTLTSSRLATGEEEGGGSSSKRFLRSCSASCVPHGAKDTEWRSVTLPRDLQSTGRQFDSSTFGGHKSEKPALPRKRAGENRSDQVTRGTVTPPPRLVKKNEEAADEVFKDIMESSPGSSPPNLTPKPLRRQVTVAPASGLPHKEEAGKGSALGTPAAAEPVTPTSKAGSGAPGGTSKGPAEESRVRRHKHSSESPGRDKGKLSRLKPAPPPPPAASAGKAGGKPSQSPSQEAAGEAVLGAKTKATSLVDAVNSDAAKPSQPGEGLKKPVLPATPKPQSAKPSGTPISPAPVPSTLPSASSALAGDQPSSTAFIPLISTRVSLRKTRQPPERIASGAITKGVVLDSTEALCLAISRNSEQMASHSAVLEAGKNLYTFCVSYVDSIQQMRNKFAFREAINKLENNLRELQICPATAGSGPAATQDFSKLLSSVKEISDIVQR

CC12CCC(C(=O)O)(CC1)CO2 [Compound 47]
chemical stability in acid [1]: no decomposition | chemical stability in base [1]: no decomposition | thermal stability [1]: remained stable | stability on storage [1]: no changes | pKa [2]: 4.4

CC12CCC(C(=O)O)(CC1)OC2 [Compound 54]
chemical stability in acid [1]: no decomposition | chemical stability in base [1]: no decomposition | thermal stability [1]: remained stable | stability on storage [1]: no changes | pKa [2]: 4.1

Cc1ccc(NC(=O)C23CCC(CN4CCN(C)CC4)(CC2)OC3)cc1Nc1nccc(-c2cccnc2)n1 [Compound 85]
CLint (human liver microsomes [3]): 19 | t1/2: half-time of a metabolic decomposition (human liver microsomes [3]; 2 μM compound, NADPH, 37 °C): 1.45 h | k el at 2 µM ([4]; pH 7.4): 0.000133 s⁻¹ | microsomal CLint at 2 µM ([4]; pH 7.4): 19 µL/min/mg | remaining at 40 min, 2 µM ([4]; pH 7.4, % Remaining without cofactor, Mean of 2, human liver microsomes, NADPH-cofactor system substituted with phosphate buffer): 118% | remaining at 7 min, 2 µM ([4]; pH 7.4, % Remaining, Mean of 2, human liver microsomes with NADPH, 7 min): 101% | remaining at 0.25 h, 2 µM ([4]; pH 7.4, % Remaining, Mean of 2, human liver microsomes with NADPH, 15 min): 98% | remaining at 25 min, 2 µM ([4]; pH 7.4, % Remaining, Mean of 2, human liver microsomes with NADPH, 25 min): 90% | remaining at 40 min, 2 µM ([4]; pH 7.4, % Remaining, Mean of 2, human liver microsomes with NADPH): 73% | half-life at 2 µM ([4]; pH 7.4, t1/2: half-time of a metabolic decomposition, human liver microsomes, 2 μM compound, NADPH, 37 °C): 1.45 h | logD (physchem): 1.8 | inhibitory effect on the catalytic activity of ABL1 kinase (in words) (ABL1 kinase; ADP-Glo Kinase Assay, 12 concentration points): did not observe any significant inhibitory effect; also recorded: inactive | Luminescence, Raw Data (LUM) (ABL1 kinase; 1st run, plate ABL1_CpdsTitr_Read1, single wells, compound 15 nM): 1058 and 1113 and 1791 and 1922 | Luminescence, Raw Data (LUM) (ABL1 kinase; 1st run, plate ABL1_CpdsTitr_Read1, single wells, compound 29 nM): 1154 and 1300 and 1938 and 1968 | Luminescence, Raw Data (LUM) (ABL1 kinase; 1st run, plate ABL1_CpdsTitr_Read1, single wells, compound 59 nM): 1819 and 1993 and 1840 and 1873 | Luminescence, Raw Data (LUM) (ABL1 kinase; 1st run, plate ABL1_CpdsTitr_Read1, single wells, compound 117 nM): 2012 and 2091 and 2063 and 1940 | Luminescence, Raw Data (LUM) (ABL1 kinase; 1st run, plate ABL1_CpdsTitr_Read1, single wells, compound 234 nM): 1243 and 1296 and 1230 and 1333 | Luminescence, Raw Data (LUM) (ABL1 kinase; 1st run, plate ABL1_CpdsTitr_Read1, single wells, compound 469 nM): 1542 and 1412 and 1342 and 1622 | Luminescence, Raw Data (LUM) (ABL1 kinase; 1st run, plate ABL1_CpdsTitr_Read1, single wells, compound 938 nM): 1188 and 1448 and 1337 and 1335 | Luminescence, Raw Data (LUM) (ABL1 kinase; 1st run, plate ABL1_CpdsTitr_Read1, single wells, compound 1500 nM): 1805 and 977 and 1232 and 1070 | Luminescence, Raw Data (LUM) (ABL1 kinase; 1st run, plate ABL1_CpdsTitr_Read1, single wells, compound 1875 nM): 1156 and 1302 and 1289 and 1256 | Luminescence, Raw Data (LUM) (ABL1 kinase; 1st run, plate ABL1_CpdsTitr_Read1, single wells, compound 3000 nM): 1327 and 1543 and 1534 and 1388 | Luminescence, Raw Data (LUM) (ABL1 kinase; 1st run, plate ABL1_CpdsTitr_Read1, single wells, compound 3750 nM): 1381 and 1311 and 1134 | Luminescence, Raw Data (LUM) (ABL1 kinase; 1st run, plate ABL1_CpdsTitr_Read1, single wells, compound 7500 nM): 1269 and 1270 and 1321 and 1071 | Luminescence, Raw Data (LUM) (ABL1 kinase; 2nd run, plate ABL1_CpdsTitr2_Read1, single wells, compound 15 nM): 6198 and 6465 and 5917 and 6372 | Luminescence, Raw Data (LUM) (ABL1 kinase; 2nd run, plate ABL1_CpdsTitr2_Read1, single wells, compound 29 nM): 7090 and 6257 and 6692 and 6143 | Luminescence, Raw Data (LUM) (ABL1 kinase; 2nd run, plate ABL1_CpdsTitr2_Read1, single wells, compound 59 nM): 6364 and 6701 and 5655 and 6486 | Luminescence, Raw Data (LUM) (ABL1 kinase; 2nd run, plate ABL1_CpdsTitr2_Read1, single wells, compound 117 nM): 6190 and 6555 and 5494 and 6585 | Luminescence, Raw Data (LUM) (ABL1 kinase; 2nd run, plate ABL1_CpdsTitr2_Read1, single wells, compound 234 nM): 5219 and 5282 and 5107 and 4913 | Luminescence, Raw Data (LUM) (ABL1 kinase; 2nd run, plate ABL1_CpdsTitr2_Read1, single wells, compound 469 nM): 6324 and 5692 and 5791 and 5812 | Luminescence, Raw Data (LUM) (ABL1 kinase; 2nd run, plate ABL1_CpdsTitr2_Read1, single wells, compound 938 nM): 6138 and 6238 and 6011 and 5496 | Luminescence, Raw Data (LUM) (ABL1 kinase; 2nd run, plate ABL1_CpdsTitr2_Read1, single wells, compound 1500 nM): 5294 and 5538 and 5113 and 5062 | Luminescence, Raw Data (LUM) (ABL1 kinase; 2nd run, plate ABL1_CpdsTitr2_Read1, single wells, compound 1875 nM): 6881 and 6876 and 6366 and 6488 | Luminescence, Raw Data (LUM) (ABL1 kinase; 2nd run, plate ABL1_CpdsTitr2_Read1, single wells, compound 3000 nM): 4805 and 5280 and 4474 and 4682 | Luminescence, Raw Data (LUM) (ABL1 kinase; 2nd run, plate ABL1_CpdsTitr2_Read1, single wells, compound 3750 nM): 6509 and 5880 and 6068 and 5810 | Luminescence, Raw Data (LUM) (ABL1 kinase; 2nd run, plate ABL1_CpdsTitr2_Read1, single wells, compound 7500 nM): 6480 and 6469 and 6139 and 5760 | solubility kinetic at 2 h ([5]; 25 °C, pH 7.4, aqueous buffer, kinetic from dmso stock): 389 µM (≈ 205 µg/mL)

O=C(O)Cc1ccccc1Nc1c(Cl)cccc1Cl [Diclofenac]
kel (elimination constant) (human liver microsomes [6]): 0.119 min⁻¹ | % Remaining, Mean of 2 (human liver microsomes [6]; microsomes, 7 min): 49% | % Remaining without cofactor, Mean of 2 (human liver microsomes [6]; microsomes, 40 min): 91%

Cc1nccn1CC1CCc2c(c3ccccc3n2C)C1=O (stereo not drawn) [Ondansetron, reference compound]
solubility kinetic at 2 h ([5]; pH 7.4): 126 µM (≈ 37 µg/mL)
